{"source": "patent US12624037B2", "about": "“Method of treating agitation, aggressive behavior, and impulse control disorder” (INTRA-CELLULAR THERAPIES, INC., priority 2012, dated 2026)", "key": {"[1]": {"tested_on": "any CYP enzyme", "experiment": "CYP enzyme inhibition", "format": "in vitro ADME"}, "[2]": {"molecular_target": "cytochrome P450 3A4 (CYP3A4) (Homo sapiens, UniProt P08684)", "sequence (P08684 whole entry)": "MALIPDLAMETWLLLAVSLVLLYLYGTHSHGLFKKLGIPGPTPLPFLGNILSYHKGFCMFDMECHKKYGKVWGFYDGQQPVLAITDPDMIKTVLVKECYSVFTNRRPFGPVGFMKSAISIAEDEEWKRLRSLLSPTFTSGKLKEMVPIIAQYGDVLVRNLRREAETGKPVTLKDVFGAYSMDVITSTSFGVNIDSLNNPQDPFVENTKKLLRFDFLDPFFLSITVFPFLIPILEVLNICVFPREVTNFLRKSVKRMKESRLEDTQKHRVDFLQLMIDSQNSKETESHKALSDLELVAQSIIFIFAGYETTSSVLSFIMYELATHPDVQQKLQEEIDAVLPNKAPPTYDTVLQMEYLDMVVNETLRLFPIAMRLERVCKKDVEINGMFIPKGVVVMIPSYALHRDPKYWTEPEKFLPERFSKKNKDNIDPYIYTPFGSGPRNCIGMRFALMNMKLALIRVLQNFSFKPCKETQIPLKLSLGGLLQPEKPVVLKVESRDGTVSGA", "experiment": "Metabolism by cytochrome P450", "format": "in vitro ADME"}, "[3]": {"molecular_target": "5-HT2C receptor (Homo sapiens, UniProt P28335)", "sequence (P28335 33-458)": "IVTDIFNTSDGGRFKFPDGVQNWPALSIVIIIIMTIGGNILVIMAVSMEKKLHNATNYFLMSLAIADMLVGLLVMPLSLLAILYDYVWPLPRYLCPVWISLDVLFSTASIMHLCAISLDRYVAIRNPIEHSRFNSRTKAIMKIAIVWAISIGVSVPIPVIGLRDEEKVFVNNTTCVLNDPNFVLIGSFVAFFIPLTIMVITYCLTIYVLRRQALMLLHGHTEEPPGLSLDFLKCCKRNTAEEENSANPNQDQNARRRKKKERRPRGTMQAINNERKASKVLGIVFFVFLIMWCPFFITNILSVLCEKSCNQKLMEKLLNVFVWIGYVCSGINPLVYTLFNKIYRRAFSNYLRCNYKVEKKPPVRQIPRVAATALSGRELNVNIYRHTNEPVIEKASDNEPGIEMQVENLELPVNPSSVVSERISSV", "conditions": "read-out: 5-HT2C Ki"}, "[4]": {"tested_on": "healthy volunteer and clinical populations", "experiment": "Safety and tolerability in healthy volunteer and clinical populations", "format": "in vivo, human", "text": "Physical Risks: Side effects are listed in the informed consent and reviewed carefully with the subject.\n(§1) Pregnant or nursing women are excluded and men and women of childbearing potential use birth control."}, "[5]": {"tested_on": "Mice", "experiment": "Social defeat/resident intruder paradigm, social isolation behavior", "format": "in vivo", "description": "Mice are tested for social isolation behavior after repeated exposure (once daily for 10 days) to an aggressive resident intruder mouse in the social defeat/resident intruder paradigm as describe by Berton et al., Science (2006) 311:864-868, the contents of which are incorporated by reference. […] On the day after the last drug or vehicle treatment, the mice are placed in the open field in the presence of a resident intruder mouse and the animal's behavior recorded by videotape for 10 min. The videotapes are then scored for the total time each mouse spent during a 10 min period in specified open-field quadrants. The total time (sec) spent by mice representing each drug treatment group in the Interaction Zone in proximity to the resident intruder mouse or, in the Corner Zones, at a distance from the intruder mouse is expressed as a mean (±SEM).\nIn the experiment described or similarly described above, mice are subjected to exposure to an aggressive resident intruder mouse in the social defeat/resident intruder paradigm as described in Berton et al., Science (2006) 311:864-868. […] On the day after the last drug or vehicle treatment the mice are placed in the open field in the presence of a resident intruder mouse and the total time each mouse spent during a 10 min period in defined open-field quadrants in close proximity to the intruder or in isolation to the intruder is measured."}, "[6]": {"experiment": "Randomized, double-blind, placebo-controlled single oral dose escalation study (safety, tolerability, pharmacokinetics)", "format": "in vivo, human", "conditions": "male, human, plasma; oral administration", "text": "as §1"}, "[7]": {"tested_on": "healthy male volunteers", "experiment": "Randomized, double-blind, placebo-controlled single oral dose escalation study (safety, tolerability, pharmacokinetics)", "format": "in vivo, human", "text": "as §1"}, "[8]": {"molecular_target": "H1 (Homo sapiens, UniProt P35367)", "sequence (P35367 whole entry)": "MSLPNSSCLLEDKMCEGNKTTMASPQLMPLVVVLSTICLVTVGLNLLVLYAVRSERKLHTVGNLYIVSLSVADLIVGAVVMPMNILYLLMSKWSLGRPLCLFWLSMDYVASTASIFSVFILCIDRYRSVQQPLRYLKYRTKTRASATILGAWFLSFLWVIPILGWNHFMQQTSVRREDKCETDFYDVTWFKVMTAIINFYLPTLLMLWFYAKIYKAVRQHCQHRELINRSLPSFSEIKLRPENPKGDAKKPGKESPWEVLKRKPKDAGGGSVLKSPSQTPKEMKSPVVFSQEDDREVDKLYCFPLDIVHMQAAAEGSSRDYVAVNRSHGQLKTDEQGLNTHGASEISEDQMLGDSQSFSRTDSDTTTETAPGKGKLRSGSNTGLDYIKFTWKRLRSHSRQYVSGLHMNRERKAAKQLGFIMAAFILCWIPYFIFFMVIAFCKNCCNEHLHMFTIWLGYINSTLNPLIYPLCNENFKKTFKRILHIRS", "experiment": "H1 receptor affinity (off-target)", "format": "binding"}, "[9]": {"tested_on": "muscarinic receptors", "experiment": "Muscarinic receptor affinity", "format": "binding"}, "[10]": {"tested_on": "healthy male volunteers", "experiment": "Placebo-controlled multiple oral dose study, once daily for 5 days", "format": "in vivo, human", "text": "as §1"}, "[11]": {"tested_on": "veterans with non-remitting posttraumatic stress disorder", "experiment": "Open label study of Compound A as adjunctive treatment to SSRI in non-remitting PTSD", "format": "in vivo, human", "description": "The target dose is 40 mg/d, but the dose is reduced to 20 mg/d as needed due to side effects. The study medication is stored and dispensed by the TVAMC pharmacy. The baseline SSRI medication is continued throughout the 12-wks study.\nBaseline Procedures and Follow-up Assessments: Subjects are assessed by the investigators or trained clinical research coordinators with telephone contacts every two weeks and the assessments (indicated in the Table below) every four weeks.\nClinician Administered PTSD Scale (CAPS; Primary Outcome): A structured clinician-administered interview is used to assess frequency and intensity of 17 symptoms of PTSD. The CAPS is further subdivided into three clusters to allow scoring for Criterion B (re-experiencing), Criterion C (avoidant behaviors) and Criterion D (hyper-arousal). […]\nIn addition to change scores, rates of response (≥30% decrease in CAPS) and remission ([…]) are determined Within-group effect sizes using Cohen's d for the continuous outcomes is determined. The number needed to treat (NNT) for response and remission rates is determined. […]"}, "[12]": {"tested_on": "Mice", "conditions": "chronic administration; Berton et al., Science (2006); cited from earlier work"}, "[13]": {"conditions": "chronic treatment 1 mg/kg IP, 30 d"}}}
{"smiles": "CN1CCN2c3c(cccc31)[C@@H]1CN(CCCC(=O)c3ccc(F)cc3)CC[C@@H]12", "note": "[Compound A]", "values": [{"measurement": "CYP inhibition", "setting": "[1]", "result": "not a potent inhibitor"}, {"measurement": "metabolizing enzyme", "setting": "[2]", "result": "metabolized predominantly by cytochrome P450 3A4 (CYP3A4)"}, {"measurement": "Ki", "setting": "[3]", "result": 173, "unit": "nM"}, {"measurement": "severity of adverse events", "setting": "[4]; headache, dizziness, postural tachycardia, dry mouth, gastrointestinal complaints, somnolence", "result": "mild to moderate"}, {"measurement": "hyper-prolactinemia", "setting": "[4]; human, in vivo", "result": "does not produce hyper-prolactinemia"}, {"measurement": "sexual dysfunction", "setting": "[4]; human, in vivo", "result": "no reports of sexual dysfunction"}, {"measurement": "safety and tolerability", "setting": "[4]; range of doses 1-140 mg", "result": "safe and well-tolerated"}, {"measurement": "cardiovascular side effects such as postural hypotension", "setting": "[4]; related to alpha 1A activity, to date", "result": "not been associated with any cardiovascular side effects"}, {"measurement": "time spent in the Interaction Zone, treatment alone", "setting": "[5]; 1 mg/kg IP once daily for 30 d, no defeat, compared with untreated control mice", "result": "did not result in differences"}, {"measurement": "time spent in proximity to the intruder after exposure to the intruder paradigm", "setting": "[5]; 1 mg/kg IP once daily for 30 d, compared with Compound A alone", "result": "no significant reduction"}, {"measurement": "effect on social defeat behavior", "setting": "[5]; [13]", "result": "reversal of social defeat behavior"}, {"measurement": "functional anti-depressant activity", "setting": "[5]; [13]", "result": "has functional anti-depressant activity"}, {"measurement": "Tmax", "setting": "[6]", "result": "~1", "unit": "h"}, {"measurement": "dose dependence of pharmacokinetics", "setting": "[7]; oral administration of increasing doses", "result": "dose-proportional linear pharmacokentics"}, {"measurement": "QTc", "setting": "[7]; single oral doses 2.5-30.0 mg", "result": "no significant increase"}, {"measurement": "changes in 12-lead ECG or 24-hour Holter-ECG", "setting": "[7]; single oral doses 2.5-30.0 mg", "result": "no clinically significant changes"}, {"measurement": "changes in vital signs or clinical laboratory", "setting": "[7]; single oral doses 2.5-30.0 mg", "result": "no dose-related clinically relevant changes"}, {"measurement": "serious adverse events", "setting": "[7]; single oral doses 2.5-30.0 mg", "result": "no serious adverse events"}, {"measurement": "severity of adverse events", "setting": "[7]; single oral doses 2.5-30.0 mg", "result": "mild to moderate"}, {"measurement": "safety and tolerability", "setting": "[7]; single oral doses of 2.5, 5.0, 10.0, 20.0 and 30.0 mg", "result": "safe and tolerated"}, {"measurement": "Ki", "setting": "[8]", "result": "> 1000", "unit": "nM"}, {"measurement": "affinity for muscarinic receptors", "setting": "[9]", "result": "no affinity"}, {"measurement": "accumulation in plasma with repeated administration", "setting": "[10]; Day 5 vs Day 1 pharmacokinetics", "result": "no accumulation"}, {"measurement": "safety and tolerability", "setting": "[10]; multiple oral doses of 5, 10 and 20 mg once daily for 5 days", "result": "safe and well tolerated"}, {"measurement": "efficacy for treatment of PTSD", "setting": "[11]; adjunctive to SSRI, 12 weeks", "result": "effective"}, {"measurement": "change in rating scale scores (CAPS, QIDS-SR, CGI-I, PANSS, SDS)", "setting": "[11]; baseline to end of 12-week treatment, 20-40 mg/d adjunctive to SSRI", "result": "significant decline"}]}
{"smiles": "CNCCC(Oc1ccc(C(F)(F)F)cc1)c1ccccc1", "note": "(stereo not drawn) [fluoxetine]", "values": [{"measurement": "isolation behavior in social defeat/resident intruder model", "setting": "[12]", "result": "reversed"}]}
